Where two headings read alike, the source gives them in different places.
What was measured:
[1] = Cytotoxicity assay, Cell-Titer-Glo, HeLa-CD4-LTR-LacZ; conditions: human, hela-cd4-ltr-lacz cells, Infectivity CC50, HeLa-CD4-LTR-LacZ
Experimental: (§1) Next, the activity of these leads against HIV infection was evaluated using the reporter cell line HeLa-CD4-LTR-LacZ, which stably expresses the β-galactosidase (β-Gal) gene under the control of the HIV 5′ LTR. The HIV NL4.3 strain was used for these studies and β-Gal activity was measured 72 hrs post infection (FIG. 3A). Cytotoxicity assays using Cell-Titer-Glo were performed in parallel to assess cell viability (FIG. 3A). […] Their anti-HIV activity was further assessed in acute replication of Jurkat T cells with the NL4.3 strain (FIG. 3A). […] These OM10.1 cells contain a single integrated wild-type provirus, while ACH-2 cells contain a single integrated provirus with a TAR mutation C37T, defective Tat-TAR feedback loop (FIG. 3B).

HIV NL4.3 strain = assay: HIV infectivity assay, reporter cell line HeLa-CD4-LTR-LacZ, β-Gal activity (Tat protein inhibition); format: cell-based, HIV-1 (NL4.3); conditions: for IC50: Human immunodeficiency virus 1, read-out: Infectivity IC50, HeLa-CD4-LTR-LacZ
Experimental: as §1

[2] = HeLa-CD4 cell NL4.3 infection assays

SMILES | CC50 ([1]; analogs of TT-44881 (Table 1)) [µM] | IC50 (HIV NL4.3 strain; analogs of TT-44881 (Table 1)) [µM] | CC50 ([1]; analogs of TT-44863 (Table 2)) [µM] | IC50 (HIV NL4.3 strain; analogs of TT-44863 (Table 2)) [µM] | other results
Cc1cc(C(=O)NCCCN2CCCC2=O)nn1-c1ccccc1 [GB-14] | > 100 | > 100 |  |  | 
Cc1cc(C(=O)N(C)CCCN2CCCC2=O)nn1-c1ccccc1 [GB-15] | > 100 | > 100 |  |  | 
CCN(CCCN1CCCC1=O)C(=O)c1cc(C)n(-c2ccccc2)n1 [GB-16] | > 100 | > 100 |  |  | 
CCCN(CCCN1CCCC1=O)C(=O)c1cc(C)n(-c2ccccc2)n1 [GB-17] | > 100 | > 100 |  |  | 
COc1ccc(C(F)(F)F)cc1NC(=O)Cn1cc(C(F)(F)F)cc(Cl)c1=O [TT-46600] |  |  | > 100 | 1 to 10 | increase of potency vs TT-44863 (HIV NL4.3 strain; [2]): ~ 5 fold
COc1ccc(Cl)cc1NC(=O)Cn1cc(C(F)(F)F)cc(Cl)c1=O [TT-46603] |  |  | 50 to 100 | 20 to 30 | decrease of potency vs TT-44863 (HIV NL4.3 strain; [2]): ~ 5 fold
CC(NC(=O)C(c1ccccc1)c1ccccc1)c1ccc(-n2ccnc2)cc1 (stereo not shown) [Z27307031] |  |  |  |  | CC50 ([1]; analogs of TT-44856 (Table 3)): > 100 µM; IC50 (HIV NL4.3 strain; analogs of TT-44856 (Table 3)): 1 to 20 µM
Cc1ccc(CC(=O)NCCCn2cnc3ccccc32)cc1 [Z102452176] |  |  |  |  | CC50 ([1]; analogs of TT-44856 (Table 3)): > 100 µM; IC50 (HIV NL4.3 strain; analogs of TT-44856 (Table 3)): 10 to 30 µM
COc1ccc(NC(=O)Cn2cc(C(F)(F)F)cc(Cl)c2=O)cc1C(F)(F)F [compound 44] |  |  | > 100 | > 100 | 
COc1ccc(OC(F)(F)F)cc1NC(=O)Cn1cc(C(F)(F)F)cc(Cl)c1=O [compound 45] |  |  | > 100 | 1 to 10 | 
CC(C)(C)OC(=O)COCCOCCOc1ccc(C(F)(F)F)cc1NC(=O)Cn1cc(C(F)(F)F)cc(Cl)c1=O [compound 47] |  |  | > 100 | 50 to 100 | 
O=C(O)COCCOCCOc1ccc(C(F)(F)F)cc1NC(=O)Cn1cc(C(F)(F)F)cc(Cl)c1=O [compound 48] |  |  | > 100 | > 100 | 
COc1ccc(C(F)(F)F)cc1NC(=O)C(C)n1cc(C(F)(F)F)cc(Cl)c1=O (stereo not shown) [compound 49] |  |  | > 100 | 1 to 20 | 
O=C(Cn1cc(C(F)(F)F)cc(Cl)c1=O)Nc1cc(C(F)(F)F)ccc1OCCN1CCOCC1 [compound 51] |  |  | 50 to 100 | 1 to 10 | 
CN1CCN(CCOc2ccc(C(F)(F)F)cc2NC(=O)Cn2cc(C(F)(F)F)cc(Cl)c2=O)CC1 [compound 52] |  |  | 25 to 50 | 10 to 20 | 
CCOCCOCCOc1ccc(C(F)(F)F)cc1NC(=O)Cn1cc(C(F)(F)F)cc(Cl)c1=O [compound 55] |  |  | > 100 | 1 to 20 | 
COc1ccc(C(F)(F)F)cc1NC(=O)C(CCO)n1cc(C(F)(F)F)cc(Cl)c1=O (stereo not shown) [compound 60] |  |  | 10 to 30 | 10 to 50 | 
COc1cc(NC(=O)Cn2cc(C(F)(F)F)cc(Cl)c2=O)cc(C(F)(F)F)c1 [compound 61] |  |  | > 100 | > 100 | 
O=C(O)c1ccc(CNC(=O)c2cn(-c3ccccc3)c3ccccc23)cc1 [compound 41784] | > 100 | > 100 |  |  | 
CS(=O)(=O)N1CCN(C(=O)c2cn(-c3ccccc3)c3ccccc23)CC1 [compound 41798] | > 100 | > 100 |  |  | 
NS(=O)(=O)c1ccc(CCNC(=O)c2cn(-c3ccccc3)c3ccccc23)cc1 [compound 41799] | > 100 | 5 to 20 |  |  | 
N#Cc1ccc(NC(=O)c2cn(-c3ccccc3)c3ccccc23)cc1 [compound 41905] | 1 to 10 | 1 to 10 |  |  | 

SMILES | CC50 ([1]; analogs of TT-44881 (Table 1)) [µM] | IC50 (HIV NL4.3 strain; analogs of TT-44881 (Table 1)) [µM] | CC50 ([1]; analogs of TT-44863 (Table 2)) [µM] | IC50 (HIV NL4.3 strain; analogs of TT-44863 (Table 2)) [µM] | other results
O=C(NCc1ccccc1N1CCCCC1)c1cn(-c2ccccc2)c2ccccc12 [compound 41924] | > 100 | > 100 |  |  | 
CC(=O)c1cccc(CNC(=O)c2cn(-c3ccccc3)c3ccccc23)c1 [compound 41967] | > 100 | > 100 |  |  | 
N#Cc1ccc(CNC(=O)c2cn(-c3ccccc3)c3ccccc23)cc1 [compound 41969] | > 100 | 12.4 |  |  | 
O=C(NCc1ccc(Cl)cn1)c1cn(-c2ccc(F)cc2)c2ccccc12 [compound 41980] | 35.6 | > 100 |  |  | 
O=C(O)c1ccc(C2(NC(=O)c3cn(-c4ccc(F)cc4)c4ccccc34)CC2)cc1 [compound 42097] | > 100 | > 100 |  |  | 
CCN(CC(=O)Nc1cc(C(F)(F)F)ccc1OCCOC)C(=O)Cc1ccccc1 [compound 45172] |  |  | ~80 | ~80 | 
O=C(NCCCN1CCCC1=O)c1ccn(-c2ccccc2)n1 [compound 45732] | > 100 | > 100 |  |  | 
CCOc1ccccc1NC(=O)Cn1c(C)cc(COC)c(C#N)c1=O [compound 46602] |  |  | > 100 | > 100 | 
CCOc1ccccc1NC(=O)Cn1cc(C(F)(F)F)cc(Cl)c1=O [compound 46604] |  |  | > 100 | > 100 | 
COc1ccccc1NC(=O)Cn1cc(C(F)(F)F)cc(Cl)c1=O [compound 46605] |  |  | > 100 | > 100 | 
O=C(c1nn(-c2ccccc2)c2c1CCC2)N1CCCC1 [compound 46607] | > 100 | > 100 |  |  | 
O=C(NCCCn1ccnc1)C(c1ccccc1)c1ccccc1 [compound 46608] |  |  |  |  | CC50 ([1]; analogs of TT-44856 (Table 3)): > 100 µM; IC50 (HIV NL4.3 strain; analogs of TT-44856 (Table 3)): 1 to 10 µM
O=C(Cn1cc(C(F)(F)F)cc(Cl)c1=O)Nc1cccc2c1OCCO2 [compound 46615] |  |  | > 100 | > 100 | 
COCCOc1ccccc1NC(=O)Cn1cc(C(F)(F)F)cc(Cl)c1=O [compound 46624] |  |  | > 100 | > 100 | 
COCCOc1ccccc1NC(=O)Cn1cccc(Cl)c1=O [compound 46631] |  |  | > 100 | > 100 | 
COc1ccccc1CNC(=O)Cn1cc(C(F)(F)F)cc(Cl)c1=O [compound 46688] |  |  | > 100 | > 100 | 
COc1ccc(C)cc1NC(=O)Cn1cc(C(F)(F)F)cc(Cl)c1=O [compound 46689] |  |  | > 100 | > 100 | 
COCCOc1ccc(C(F)(F)F)cc1NC(=O)Cn1cccc(Cl)c1=O [compound 46704] |  |  | > 100 | > 100 | 
O=C(NCCCN1CCCC1=O)c1nn(-c2ccccc2)c2ccccc12 [compound 46715] | > 100 | 50 to 100 |  |  | 
O=C(NCCCn1ccnc1)c1n[nH]c2c1CCC2 [compound 46726] | > 100 | > 100 |  |  | 
O=C(NCCCN1CCCC1=O)c1n[nH]c2c1CCC2 [compound 46727] | > 100 | > 100 |  |  | 
COc1ccccc1CNC(=O)Cn1cccc(Cl)c1=O [compound 46747] |  |  | > 100 | > 100 | 

SMILES | CC50 ([1]; analogs of TT-44881 (Table 1)) [µM] | IC50 (HIV NL4.3 strain; analogs of TT-44881 (Table 1)) [µM] | CC50 ([1]; analogs of TT-44863 (Table 2)) [µM] | IC50 (HIV NL4.3 strain; analogs of TT-44863 (Table 2)) [µM] | other results
O=C(Cn1cc(C(F)(F)F)cc(Cl)c1=O)Nc1cccc(C(F)(F)F)c1 [compound 46748] |  |  | > 100 | > 100 | 
O=C(NCCCN1CCCC1=O)c1cn(-c2ccccc2)c2ncccc12 [compound 46751] | > 100 | > 100 |  |  | 
O=C(NCCCN1CCCC1=O)c1nn(-c2ccccc2)c2ncccc12 [compound 46752] | > 100 | > 100 |  |  | 
COCCOc1ccc(C(F)(F)F)cc1NC(=O)Cn1cccc(F)c1=O [compound 46762] |  |  | > 100 | > 100 | 
COc1ccc(C(F)(F)F)cc1NC(=O)Cn1cccc(Cl)c1=O [compound 46763] |  |  | > 100 | 50 to 100 | 
COc1ccc(C(F)(F)F)cc1NC(=O)Cn1cccc(F)c1=O [compound 46765] |  |  | > 100 | > 100 | 
COc1cc(C(F)(F)F)ccc1NC(=O)Cn1cc(C(F)(F)F)cc(Cl)c1=O [compound 46808] |  |  | > 100 | 1 to 30 | 
COc1ccc(C(F)(F)F)cc1NC(=O)Cn1cc(C)cc(Cl)c1=O [compound 46809] |  |  | > 100 | 1 to 10 | 
O=C(NCCCN1CCCC1=O)c1nn(-c2ccccc2)c2c1CCCC2 [compound 46819] | > 50 | > 50 |  |  | 
O=C(NCCCN1CCCC1=O)c1nn(-c2ccccc2)c2ccc(F)cc12 [compound 46820] | > 100 | 50 to 100 |  |  | 
O=C(NCCCN1CCCC1=O)c1c[nH]nc1C1CC1 [compound 46821] | > 100 | > 100 |  |  | 
N#Cc1c(NCCCN2CCCC2=O)c2ccccc2[nH]c1=O [compound 46822] | > 100 | > 100 |  |  | 
CCOC(=O)c1c(NCCCN2CCCC2=O)c2ccccc2[nH]c1=O [compound 46823] | > 100 | > 100 |  |  | 
Cc1cccc(-n2cc(C(=O)NCCCN3CCCC3=O)c3ccccc32)c1 [compound 46824] | > 100 | > 100 |  |  | 
O=C(NCCCN1CCCC1=O)c1c(-c2ccccc2)[nH]c2ccccc2c1=O [compound 46825] | > 100 | > 100 |  |  | 
O=C(NCCCN1CCCC1=O)c1n[nH]c2ccccc12 [compound 46826] | > 100 | > 100 |  |  | 
O=C(Nc1ccccc1)c1c(NCCCN2CCCC2=O)c2ccccc2[nH]c1=O [compound 46827] | > 100 | > 100 |  |  | 
COc1ccc(C#N)cc1NC(=O)Cn1cc(C(F)(F)F)cc(Cl)c1=O [compound 46828] |  |  | 50 to 100 | 50 to 100 | 
COc1ccc(F)cc1NC(=O)Cn1cc(C(F)(F)F)cc(Cl)c1=O [compound 46867] |  |  | 50 to 100 | 10 to 30 | 
COc1ccc(OC)c(NC(=O)Cn2cc(C(F)(F)F)cc(Cl)c2=O)c1 [compound 46868] |  |  | > 100 | > 100 | 

Source: US20260355184A1, “SMALL MOLECULE DEGRADERS OF HIV-1 TAT PROTEIN” (priority 2022, published 2026)
